# Measurements reported in publication PMC6405842, “Identification of a novel scaffold for a small molecule GPR139 receptor agonist” (Scientific Reports, 2019).
# Key:
# [1] = biological target: T1, GPR139 (Homo sapiens, UniProt Q6DWJ6); test: Phospho-ERK1/2 HTRF assay in CHO-GPR139 cells; assay type: cell-based; conditions: ERK phosphorylation
# T1 construct: host or cells: CHO-k1
# T1 sequence (Q6DWJ6 1-353): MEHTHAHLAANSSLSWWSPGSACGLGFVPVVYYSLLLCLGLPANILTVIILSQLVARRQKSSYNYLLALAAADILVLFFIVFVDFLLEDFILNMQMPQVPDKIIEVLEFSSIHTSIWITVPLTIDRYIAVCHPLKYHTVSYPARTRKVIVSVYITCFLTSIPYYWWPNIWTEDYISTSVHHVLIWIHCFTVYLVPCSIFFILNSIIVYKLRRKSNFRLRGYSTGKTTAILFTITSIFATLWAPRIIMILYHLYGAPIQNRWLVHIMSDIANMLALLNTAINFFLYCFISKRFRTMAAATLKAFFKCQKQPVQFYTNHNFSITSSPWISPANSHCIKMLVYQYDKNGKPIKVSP
# Experimental: All compounds were tested on a CHO-k1 cell line stably expressing GPR139 (CHO-GPR139)[11] kindly provided by H. Lundbeck A/S, Denmark. GPR139-specific responses were assessed using a CHO-k1 cell line stably expressing the muscarinic acetylcholine receptor M1 (CHO-M1) (The Missouri S&T cDNA Resource Center, # CEM100TN00).
# Phospho-ERK measurements were made using the Advanced Phospho-ERK1/2 (Thr202/Tyr204) HTRF kit by Cisbio (Codolet, France). Approximately 24 hours prior to the experiment, CHO-GPR139 cells were plated at 50,000 cells/well onto a 96-well plate and cultured as detailed above. Approximately 6 hours later, the media was aspirated, replaced with 50 μL serum-free media, and the cells were allowed to serum starve overnight. The day of the experiment, serial dilutions of the test compounds and controls were made in serum-free media at 2x final concentration. 50 μL of test compounds were added directly to the appropriate wells for 5 minute stimulation at 37 °C. At this point, the media and compounds were rapidly aspirated, lysis/blocking buffer was added, and cells were lysed on a shaker for 30 minutes at room temperature.
# (§1) The Ca^2+ and ERK responses were normalized as indicated and the concentration response curves were fitted by Prism 6 software (GraphPad) using nonlinear regression in a sigmoidal model with variable slope, as has been previously described.
# [2] = biological target: T1, GPR139; test: Fluo-4 calcium mobilization assay, agonist mode, concentration-response curves in CHO-GPR139 cells; assay type: cell-based
# Experimental: All compounds were tested on a CHO-k1 cell line stably expressing GPR139 (CHO-GPR139)[11] kindly provided by H. Lundbeck A/S, Denmark. GPR139-specific responses were assessed using a CHO-k1 cell line stably expressing the muscarinic acetylcholine receptor M1 (CHO-M1) (The Missouri S&T cDNA Resource Center, # CEM100TN00). The CHO-GPR139 cells were grown in Dulbecco’s modified Eagle’s medium (DMEM) F12-Kaighn’s (ThermoFisher Scientific # 21127) supplemented with 10% dialyzed fetal bovine serum (United States origin; ThermoFisher Scientific # 26400), 1% GlutaMAX-I (100X) (ThermoFisher Scientific # 35050061), and 100 units/mL penicillin and 100 µg/mL streptomycin (ThermoFisher Scientific # 15140122) and 1 mg/mL geneticin (ThermoFisher Scientific # 11811031). The CHO-M1 cells were grown in Ham’s F12 (ThermoFisher Scientific # 21765) supplemented with 10% fetal bovine serum (South American origin; ThermoFisher Scientific # 10270) + 100 units/mL penicillin and streptomycin and 0.25 mg/mL geneticin.
# The Fluo-4 Ca^2+-assay was performed as described previously, with minor modifications. After 1 hour incubation with the Fluo-4 dye, the CHO-GPR139 cells were washed with 100 μL HEPES buffer (Hank’s Balanced Salt Solution (HBBS, ThermoFisher Scientific # 14175053) supplemented with 20 mM HEPES, 1 mM MgCl2, 1 mM CaCl2, pH = 7.4) and the compound library was then added in concentrations between 25–63 μM dissolved in HEPES buffer (supplemented with 2.5 mM probenecid and 1% DMSO) and pre-incubated for 10 min at 37 °C. 33 μL of 3.2 μM 1a were added automatically after baseline measurements. […] This set-up allowed us to identify both antagonists and agonists (Fig. 2).
# Each compound, for which a concentration response curve was made, was tested at least three times in duplicate measurements. After the incubation with the Fluo-4 dye and a wash, 100 μL HEPES buffer (supplemented with 2.5 mM probenecid) was added to each well and incubated for 10 minutes at 37 °C before recording. 33 μL of compounds (4× concentrated) were added automatically after baseline measurements.
# as §1
# [3] = CHO-GPR139 cells, read-out: pEC50 ± SEM (converted)
# [4] = expressed relative to FBS positive control
# [5] = CHO-GPR139 cells, at least three independent concentration-response curves in duplicate, read-out: EC50
# [6] = CHO-GPR139 cells, normalized to buffer (0%) and 8 μM 1a (100%)
# [7] = Table S1, 11 primary screen hits
# [8] = Table S1, 11 primary screen hits, read-out: EC50
# [9] = Table S1, normalized to compound 1a
smiles,measurement,setting,value
"COc1cc(OC)cc(C(=O)NNC(=O)Nc2cccc3ccccc23)c1 [1a, reference compound]",EC50,[1]; [3],0.0282 µM
same,Emax,[1]; [4],81.5 ± 4.12%
same,EC80 concentration,[2]; used for second stimulation in the screen,0.8 µM
"C[C@H](NC(=O)CNC(=O)c1cccc(Cl)c1)c1ccccc1 [7c, reference compound]",EC50,[1]; [3],0.0129 µM
same,Emax,[1]; [4],89.1 ± 4.38%
O=C(O)C1CC=CCC1c1nnc(CSc2ccc(Cl)cc2)o1 (stereo not shown) [AC004],EC50,"[2]; calcium mobilization assay, GPR139, values printed with a minus sign, read-out: pEC50 ± SEM (converted)",0.219 µM
same,Emax,"[2]; calcium mobilization assay, efficacy normalized to compound 1a",116%
C=CCN(CC=C)C(=O)CN1C(=O)NC(C)(c2ccc3c(c2)OCO3)C1=O (stereo not shown) [AC7],pEC50 ± S.E.M.,[2]; CHO-GPR139 cells,6.41 ± 0.12
same,EC50,[2]; [5],0.39 µM
same,Emax ± S.E.M.,[2]; [6],112 ± 5%
Cc1ccc(C2(C)NC(=O)N(Cc3cn4cc(Cl)ccc4n3)C2=O)cc1 (stereo not shown) [AC10],pEC50 ± S.E.M.,[2]; [7],5.55 ± 0.03
same,EC50,[2]; [8],2.83 µM
same,Emax ± S.E.M.,[2]; [9],89 ± 5%
CC1(C2CC2)NC(=O)N(CC(=O)N2CCCSc3ccccc32)C1=O (stereo not shown) [AC11],pEC50 ± S.E.M.,[2]; [7],5.15 ± 0.12
same,EC50,[2]; [8],7.07 µM
same,Emax ± S.E.M.,[2]; [9],33 ± 3%
CC(C)OCCCNC(=O)NC(C)c1ccc2c(c1)OCO2 (stereo not shown) [AC12],pEC50 ± S.E.M.,[2]; [7],5.43 ± 0.19
same,EC50,[2]; [8],3.74 µM
same,Emax ± S.E.M.,[2]; [9],116 ± 8%
Cc1ccc(CNC(=O)NCC2CN(CC(C)C)CCO2)cc1 (stereo not shown) [AC13],pEC50 ± S.E.M.,[2]; [7],4.68 ± 0.13
same,EC50,[2]; [8],20.7 µM
same,Emax ± S.E.M.,[2]; [9],90 ± 5%
O=C(NCCCc1nc2ccccc2[nH]1)NC1CCSc2ccc(F)cc21 (stereo not shown) [AC14],pEC50 ± S.E.M.,[2]; CHO-GPR139 cells,6.11 ± 0.12
same,EC50,[2]; [5],0.78 µM
same,Emax ± S.E.M.,[2]; [6],93 ± 3%
CN(CC(=O)NC1CC1)C(=O)COc1ccc2oc3c(c2c1)CCCC3 [AC16],pEC50 ± S.E.M.,[2]; [7],4.92 ± 0.12
same,EC50,[2]; [8],11.9 µM
same,Emax ± S.E.M.,[2]; [9],44 ± 4%
O=C(NCCc1cc(Cl)c2c(c1)OCCO2)NCc1cccnc1-n1ccnc1 [AC37],pEC50 ± S.E.M.,[2]; [7],5.55 ± 0.19
same,EC50,[2]; [8],2.8 µM
same,Emax ± S.E.M.,[2]; [9],105 ± 8%
CC(C)OCCCNC(=O)NC(C)c1cccc(Cl)c1 (stereo not shown) [AC76],pEC50 ± S.E.M.,[2]; CHO-GPR139 cells,6.03 ± 0.10
same,EC50,[2]; [5],0.94 µM
same,Emax ± S.E.M.,[2]; [6],97 ± 4%
CC(C)OCCCNC(=O)NC(C)c1ccccc1Cl (stereo not shown) [AC77],pEC50 ± S.E.M.,[2]; CHO-GPR139 cells,6.22 ± 0.17
same,EC50,[2]; [5],0.6 µM
same,Emax ± S.E.M.,[2]; [6],102 ± 4%
CC(C)COCCCNC(=O)NC(C)c1ccc(Br)cc1 (stereo not shown) [AC82],pEC50 ± S.E.M.,[2]; CHO-GPR139 cells,6.54 ± 0.08
same,EC50,[2]; [5],0.29 µM
same,Emax ± S.E.M.,[2]; [6],102 ± 6%
Cc1ccc(C(=O)CN2C(=O)NC(C)(c3ccc4c(c3)OCO4)C2=O)cc1 (stereo not shown) [AC136],pEC50 ± S.E.M.,[2]; CHO-GPR139 cells,6.01 ± 0.03
same,EC50,[2]; [5],0.99 µM
same,Emax ± S.E.M.,[2]; [6],67 ± 6%
COc1ccc(OC)c(C(=O)CN2C(=O)NC(C)(c3ccc4c(c3)OCO4)C2=O)c1 (stereo not shown) [AC137],pEC50 ± S.E.M.,[2]; CHO-GPR139 cells,6.27 ± 0.08
same,EC50,[2]; [5],0.54 µM
same,Emax ± S.E.M.,[2]; [6],92 ± 3%
COc1ccc(C(=O)CN2C(=O)NC(C)(c3ccc4c(c3)OCO4)C2=O)cc1OC (stereo not shown) [AC138],pEC50 ± S.E.M.,[2]; CHO-GPR139 cells,6.10 ± 0.14
same,EC50,[2]; [5],0.79 µM
same,Emax ± S.E.M.,[2]; [6],100 ± 5%
Cc1ccc(C(C)NC(=O)NCC(=O)NCC2CC2)cc1F (stereo not shown) [AC177],pEC50 ± SEM,[1]; CHO-GPR139 cells,7.65 ± 0.13
same,EC50,"[1]; CHO-GPR139 cells, 5 minute stimulation, read-out: EC50",0.022 µM
same,Emax ± SEM,[1]; [4],79.10 ± 3.19
same,pEC50 ± S.E.M.,[2]; CHO-GPR139 cells,7.02 ± 0.11
same,EC50,[2]; [5],0.09 µM
same,Emax ± S.E.M.,[2]; [6],103 ± 1%
